Experimental data from US12186283B2, “Bismuth-thiol compositions and methods of use” (Microbion Corporation, priority 2018, dated 2025).

Legend:
Format in all cases: cell-based
Candida albicans = test: Broth microdilution MIC, yeast (Example 13); details: 24 hr
Candida glabrata = test: Broth microdilution MIC, yeast (Example 13)
Aspergillus spp. = test: Broth microdilution MIC/MEC, mold (Example 13); details: comparators, read time not given
Candida auris = test: Broth microdilution MIC, yeast (Example 13)
Candida krusei = test: Broth microdilution MIC, yeast (Example 13)

`C[C@@H]1[C@H](O)[C@@H](C)/C=C/C=C/C=C/C=C/C=C/C=C/C=C/[C@H](O[C@@H]2O[C@H](C)[C@@H](O)[C@H](N)[C@@H]2O)C[C@@H]2O[C@](O)(C[C@@H](O)C[C@@H](O)[C@H](O)CC[C@@H](O)C[C@@H](O)CC(=O)O[C@H]1C)C[C@H](O)[C@H]2C(=O)O` [AMP B] was tested, and the “MIC0 (complete inhibition)” value (Candida albicans; Candida albicans ATCC 90028, Susceptible) was 0.25 µg/mL, the “MIC0 (complete inhibition)” value (Candida albicans; Candida albicans ATCC 204276, MICA-R) was 0.25 µg/mL and the “MIC0 (complete inhibition)” value (Candida albicans; Candida albicans ATCC MYA-2732, FLU-R, VORI-I) was 0.25 µg/mL. The “MIC0 (complete inhibition)” value (Candida albicans; Candida albicans MMX 7053, Susceptible) was 0.12 µg/mL, the “MIC0 (complete inhibition)” value (Candida albicans; Candida albicans MMX 7067, FLU-R, VORI-R) was 0.25 µg/mL and the “MIC0 (complete inhibition)” value (Candida albicans; Candida albicans MMX 7403, Susceptible) was 0.25 µg/mL. The “MIC0 (complete inhibition)” value (Candida albicans; Candida albicans MMX 7424, CASP-R, MICA-R) was 0.25 µg/mL, the “MIC0 (complete inhibition)” value (Candida albicans; Candida albicans MMX 7430, Susceptible) was 0.25 µg/mL and the “MIC0 (complete inhibition)” value (Candida albicans; Candida albicans MMX 7437, FLU-I) was 0.25 µg/mL. For the same compound, the “MIC0 (complete inhibition)” value (Candida albicans; Candida albicans MMX 7445, FLU-R, VORI-R) was 0.12 µg/mL, the “MIC0 (complete inhibition)” value (Candida glabrata; Candida glabrata ATCC 90030, Susceptible) was 0.25 µg/mL and the “MIC0 (complete inhibition)” value (Candida glabrata; Candida glabrata ATCC MYA-2950, Susceptible) was 0.12 µg/mL. For the same compound, the “MIC0 (complete inhibition)” value (Candida glabrata; Candida glabrata MMX 7087, Susceptible) was 0.12 µg/mL, the “MIC0 (complete inhibition)” value (Candida glabrata; Candida glabrata MMX 7093, FLU-R) was 0.25 µg/mL and the “MIC0 (complete inhibition)” value (Candida glabrata; Candida glabrata MMX 7101, FLU-R) was 0.25 µg/mL. For the same compound, the “MIC0 (complete inhibition)” value (Candida glabrata; Candida glabrata MMX 7103, CASP-R, MICA-R) was 0.25 µg/mL, the “MIC0 (complete inhibition)” value (Candida glabrata; Candida glabrata MMX 7111, Susceptible) was 0.25 µg/mL and the “MIC0 (complete inhibition)” value (Candida glabrata; Candida glabrata MMX 7285, CASP-R, MICA-R) was 0.25 µg/mL. The “MIC0 (complete inhibition)” value (Candida glabrata; Candida glabrata MMX 7307, CASP-R, MICA-R, FLU-R) was 0.25 µg/mL, the “MIC0 (complete inhibition)” value (Candida glabrata; Candida glabrata MMX 7549, Susceptible) was 0.25 µg/mL and the “MIC0 (complete inhibition)” value (Aspergillus spp.; A. flavus ATCC 22546) was 1 µg/mL. The “MIC0 (complete inhibition)” value (Aspergillus spp.; A. flavus ATCC 204304) was 1 µg/mL, the “MIC0 (complete inhibition)” value (Aspergillus spp.; A. flavus MMX 7935) was 1 µg/mL and the “MIC0 (complete inhibition)” value (Aspergillus spp.; A. fumigatus ATCC 204305) was 1 µg/mL. For the same compound, the “MIC0 (complete inhibition)” value (Aspergillus spp.; A. fumigatus ATCC MYA-3626) was 1 µg/mL, the “MIC0 (complete inhibition)” value (Aspergillus spp.; A. fumigatus MMX 5934) was 1 µg/mL and the “MIC0 (complete inhibition)” value (Aspergillus spp.; A. fumigatus MMX 5938) was 1 µg/mL. The “MIC0 (complete inhibition)” value (Aspergillus spp.; A. fumigatus MMX 5939) was 1 µg/mL, the “MIC0 (complete inhibition)” value (Aspergillus spp.; A. niger ATCC 29508) was 0.25 µg/mL and the “MIC0 (complete inhibition)” value (Aspergillus spp.; A. terreus MMX 8229) was 0.25 µg/mL. For the same compound, the “MIC0 (complete inhibition)” value (Candida auris; C. auris MMX 9862, Susceptible) was 0.25 µg/mL, the “MIC0 (complete inhibition)” value (Candida auris; C. auris MMX 9863, FLU-R, VORI-R) was 0.12 µg/mL and the “MIC0 (complete inhibition)” value (Candida auris; C. auris MMX 9864, FLU-R, VORI-R) was 0.25 µg/mL. For the same compound, the “MIC0 (complete inhibition)” value (Candida auris; C. auris MMX 9865, FLU-R, VORI-R) was 0.25 µg/mL, the “MIC0 (complete inhibition)” value (Candida auris; C. auris MMX 9866, FLU-R, VORI-R) was 0.5 µg/mL and the “MIC0 (complete inhibition)” value (Candida auris; C. auris MMX 9867, FLU-R, VORI-R) was 0.5 µg/mL. For the same compound, the “MIC0 (complete inhibition)” value (Candida auris; C. auris MMX 9868, FLU-R, VORI-R) was 0.25 µg/mL, the “MIC0 (complete inhibition)” value (Candida auris; C. auris MMX 9869, FLU-R, VORI-R) was 1 µg/mL and the “MIC0 (complete inhibition)” value (Candida auris; C. auris MMX 9870, FLU-R, VORI-R) was 1 µg/mL. The “MIC0 (complete inhibition)” value (Candida auris; C. auris MMX 9871, Susceptible) was 1 µg/mL, the “MIC0 (complete inhibition)” value (Candida krusei; C. krusei ATCC 6258, MICA-I) was 0.5 µg/mL and the “MIC0 (complete inhibition)” value (Candida krusei; C. krusei ATCC 14243, Susceptible) was 0.25 µg/mL. For the same compound, the “MIC0 (complete inhibition)” value (Candida krusei; C. krusei ATCC 96685, Susceptible) was 0.5 µg/mL, the “MIC0 (complete inhibition)” value (Candida krusei; C. krusei MMX 7125, Susceptible) was 0.5 µg/mL and the “MIC0 (complete inhibition)” value (Candida krusei; C. krusei MMX 7128, Susceptible) was 0.5 µg/mL. The “MIC0 (complete inhibition)” value (Candida krusei; C. krusei MMX 7141, Susceptible) was 0.25 µg/mL, the “MIC0 (complete inhibition)” value (Candida krusei; C. krusei MMX 7153, MICA-R) was 0.5 µg/mL and the “MIC0 (complete inhibition)” value (Candida krusei; C. krusei MMX 7155, Susceptible) was 0.25 µg/mL. For the same compound, the “MIC0 (complete inhibition)” value (Candida krusei; C. krusei MMX 7563, Susceptible) was 0.5 µg/mL and the “MIC0 (complete inhibition)” value (Candida krusei; C. krusei MMX 9878, MICA-I, VORI-I) was 0.5 µg/mL.
